Experiment [1] addresses T1, Erk3 (Homo sapiens, UniProt Q16659). The experiment can be described thus: biochemical.
The target in another experiment is EpHA5 (Homo sapiens, UniProt P54756). The experiment can be described thus: NanoBRET target engagement. The experiment is classed as cell-based. For orientation: Bioluminescence resonance energy transfer reports proximity on the nanometre scale.
For another experiment, the target named is GAK (Homo sapiens, UniProt O14976). The experiment can be described thus: NanoBRET target engagement. The experiment is classed as cell-based.
The target in experiment [2] is T2, MSSK1 (Homo sapiens, UniProt Q9UPE1). The experiment can be described thus: biochemical.
A further experiment concerns the target EpHB2 (Homo sapiens, UniProt P29323). The experiment can be described thus: NanoBRET target engagement. It is filed as cell-based.
For a further experiment, the target named is ABL1 (Homo sapiens, UniProt P00519). Briefly: NanoBRET target engagement. The experiment is classed as cell-based.
The next experiment deals with EpHA2 (Homo sapiens, UniProt P29317). Briefly: NanoBRET target engagement. It is filed as cell-based.
The target of the next experiment is EpHA4 (Homo sapiens, UniProt P54764). Briefly: NanoBRET target engagement. It is filed as cell-based.
For a further experiment, the target named is EpHA2 (kinase domain) (Homo sapiens, UniProt P29317). The experiment can be described thus: X-ray crystal structure. Particulars: co-crystal, 293 K. It is filed as binding.
In a further experiment the target is T3, BMX (Homo sapiens, UniProt P51813).
T3 sequence (P51813 1-675): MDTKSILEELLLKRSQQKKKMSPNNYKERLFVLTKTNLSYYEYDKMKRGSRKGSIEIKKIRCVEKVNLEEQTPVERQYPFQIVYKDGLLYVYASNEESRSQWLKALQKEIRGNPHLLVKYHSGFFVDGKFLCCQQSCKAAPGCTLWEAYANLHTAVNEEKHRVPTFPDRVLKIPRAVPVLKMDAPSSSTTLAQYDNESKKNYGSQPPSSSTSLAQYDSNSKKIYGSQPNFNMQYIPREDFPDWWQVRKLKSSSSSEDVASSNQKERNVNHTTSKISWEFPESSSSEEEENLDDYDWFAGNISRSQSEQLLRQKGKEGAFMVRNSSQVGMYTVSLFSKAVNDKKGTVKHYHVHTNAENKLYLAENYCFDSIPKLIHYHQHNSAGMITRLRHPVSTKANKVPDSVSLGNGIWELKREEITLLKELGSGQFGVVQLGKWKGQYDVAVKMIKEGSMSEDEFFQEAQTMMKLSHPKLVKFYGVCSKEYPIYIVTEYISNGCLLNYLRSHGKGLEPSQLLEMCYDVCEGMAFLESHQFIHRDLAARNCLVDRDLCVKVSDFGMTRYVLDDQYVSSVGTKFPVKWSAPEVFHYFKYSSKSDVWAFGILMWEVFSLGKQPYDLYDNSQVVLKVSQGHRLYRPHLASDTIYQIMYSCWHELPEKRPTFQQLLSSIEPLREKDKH
The experiment can be described thus: NanoBRET target engagement. The experiment is classed as cell-based.

For the next experiment, the target named is SLK (Homo sapiens, UniProt Q9H2G2). Briefly: biochemical. The conditions noted are these: read-out: dTm 12.
For experiment [3], the target named is T1, Erk3. The experiment can be described thus: biochemical. Particulars: read-out: dTm 12.
A further experiment deals with CK1e (Homo sapiens, UniProt P49674). The experiment can be described thus: biochemical. The conditions noted are these: read-out: dTm 12.
In experiment [4] the target is T2, MSSK1. Briefly: biochemical. Particulars: read-out: dTm 12.

The structures appear in SMILES notation. Read-outs that look alike come from different tables or passages of the source.

T1 sequence (Q16659 whole entry): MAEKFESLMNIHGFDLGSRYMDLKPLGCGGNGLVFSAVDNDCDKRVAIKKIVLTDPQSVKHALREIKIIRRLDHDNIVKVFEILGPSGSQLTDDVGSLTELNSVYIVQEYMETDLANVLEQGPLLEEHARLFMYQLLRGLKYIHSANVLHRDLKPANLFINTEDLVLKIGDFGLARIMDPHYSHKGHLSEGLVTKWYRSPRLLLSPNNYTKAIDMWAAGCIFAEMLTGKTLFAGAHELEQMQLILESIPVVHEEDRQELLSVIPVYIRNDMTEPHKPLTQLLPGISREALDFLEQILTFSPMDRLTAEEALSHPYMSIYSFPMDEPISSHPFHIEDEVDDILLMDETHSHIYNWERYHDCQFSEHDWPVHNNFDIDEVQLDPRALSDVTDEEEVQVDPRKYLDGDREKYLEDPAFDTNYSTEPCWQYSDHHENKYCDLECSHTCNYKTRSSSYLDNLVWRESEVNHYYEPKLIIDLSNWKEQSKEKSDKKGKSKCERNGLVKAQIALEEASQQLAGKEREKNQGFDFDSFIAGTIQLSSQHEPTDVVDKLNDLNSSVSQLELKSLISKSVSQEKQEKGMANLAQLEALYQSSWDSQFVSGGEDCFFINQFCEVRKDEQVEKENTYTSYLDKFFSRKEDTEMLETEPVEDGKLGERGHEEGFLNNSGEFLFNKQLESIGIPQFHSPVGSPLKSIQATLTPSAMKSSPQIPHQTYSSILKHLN
T2 sequence (Q9UPE1 whole entry): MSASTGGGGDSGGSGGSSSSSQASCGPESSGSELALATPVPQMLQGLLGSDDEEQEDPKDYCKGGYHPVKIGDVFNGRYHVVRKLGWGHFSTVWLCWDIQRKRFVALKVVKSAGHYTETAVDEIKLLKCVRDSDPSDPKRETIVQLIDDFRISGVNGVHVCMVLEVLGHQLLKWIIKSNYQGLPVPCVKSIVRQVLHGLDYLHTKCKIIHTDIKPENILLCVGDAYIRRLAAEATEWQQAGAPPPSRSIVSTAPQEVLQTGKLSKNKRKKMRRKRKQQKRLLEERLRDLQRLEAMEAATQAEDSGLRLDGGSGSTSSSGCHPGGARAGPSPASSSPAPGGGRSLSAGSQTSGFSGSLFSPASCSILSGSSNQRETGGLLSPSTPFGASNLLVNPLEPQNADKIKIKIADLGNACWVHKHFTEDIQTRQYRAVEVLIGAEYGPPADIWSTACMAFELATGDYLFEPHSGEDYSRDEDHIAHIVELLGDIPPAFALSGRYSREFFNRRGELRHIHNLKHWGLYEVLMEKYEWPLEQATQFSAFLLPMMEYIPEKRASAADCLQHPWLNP
Sequence of EpHA4 (P54764 20-986): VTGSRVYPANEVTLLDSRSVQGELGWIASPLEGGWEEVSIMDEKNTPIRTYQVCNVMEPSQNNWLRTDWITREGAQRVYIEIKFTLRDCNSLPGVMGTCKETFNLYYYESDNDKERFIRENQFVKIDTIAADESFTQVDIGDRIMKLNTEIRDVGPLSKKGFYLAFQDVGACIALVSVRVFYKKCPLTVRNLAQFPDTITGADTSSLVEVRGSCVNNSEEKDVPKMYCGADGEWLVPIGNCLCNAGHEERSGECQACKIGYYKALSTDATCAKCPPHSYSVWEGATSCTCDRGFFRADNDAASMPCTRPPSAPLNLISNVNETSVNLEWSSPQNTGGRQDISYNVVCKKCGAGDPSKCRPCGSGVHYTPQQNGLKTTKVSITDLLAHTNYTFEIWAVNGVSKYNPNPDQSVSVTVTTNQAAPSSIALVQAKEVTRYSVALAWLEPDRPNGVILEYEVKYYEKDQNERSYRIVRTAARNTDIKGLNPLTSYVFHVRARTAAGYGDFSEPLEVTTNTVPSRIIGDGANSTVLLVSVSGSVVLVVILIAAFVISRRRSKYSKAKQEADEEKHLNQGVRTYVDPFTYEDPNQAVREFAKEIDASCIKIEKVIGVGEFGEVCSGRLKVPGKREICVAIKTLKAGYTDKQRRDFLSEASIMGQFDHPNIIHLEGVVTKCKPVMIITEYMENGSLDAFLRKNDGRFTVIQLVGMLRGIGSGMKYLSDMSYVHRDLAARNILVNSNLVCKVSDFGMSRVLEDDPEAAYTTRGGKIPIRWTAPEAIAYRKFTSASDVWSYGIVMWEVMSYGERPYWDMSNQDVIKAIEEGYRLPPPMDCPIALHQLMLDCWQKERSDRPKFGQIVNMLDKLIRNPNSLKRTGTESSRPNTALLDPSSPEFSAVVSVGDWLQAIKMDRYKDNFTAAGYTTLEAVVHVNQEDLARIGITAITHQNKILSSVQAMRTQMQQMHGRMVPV
Sequence of EpHA2 (P29317 24-976): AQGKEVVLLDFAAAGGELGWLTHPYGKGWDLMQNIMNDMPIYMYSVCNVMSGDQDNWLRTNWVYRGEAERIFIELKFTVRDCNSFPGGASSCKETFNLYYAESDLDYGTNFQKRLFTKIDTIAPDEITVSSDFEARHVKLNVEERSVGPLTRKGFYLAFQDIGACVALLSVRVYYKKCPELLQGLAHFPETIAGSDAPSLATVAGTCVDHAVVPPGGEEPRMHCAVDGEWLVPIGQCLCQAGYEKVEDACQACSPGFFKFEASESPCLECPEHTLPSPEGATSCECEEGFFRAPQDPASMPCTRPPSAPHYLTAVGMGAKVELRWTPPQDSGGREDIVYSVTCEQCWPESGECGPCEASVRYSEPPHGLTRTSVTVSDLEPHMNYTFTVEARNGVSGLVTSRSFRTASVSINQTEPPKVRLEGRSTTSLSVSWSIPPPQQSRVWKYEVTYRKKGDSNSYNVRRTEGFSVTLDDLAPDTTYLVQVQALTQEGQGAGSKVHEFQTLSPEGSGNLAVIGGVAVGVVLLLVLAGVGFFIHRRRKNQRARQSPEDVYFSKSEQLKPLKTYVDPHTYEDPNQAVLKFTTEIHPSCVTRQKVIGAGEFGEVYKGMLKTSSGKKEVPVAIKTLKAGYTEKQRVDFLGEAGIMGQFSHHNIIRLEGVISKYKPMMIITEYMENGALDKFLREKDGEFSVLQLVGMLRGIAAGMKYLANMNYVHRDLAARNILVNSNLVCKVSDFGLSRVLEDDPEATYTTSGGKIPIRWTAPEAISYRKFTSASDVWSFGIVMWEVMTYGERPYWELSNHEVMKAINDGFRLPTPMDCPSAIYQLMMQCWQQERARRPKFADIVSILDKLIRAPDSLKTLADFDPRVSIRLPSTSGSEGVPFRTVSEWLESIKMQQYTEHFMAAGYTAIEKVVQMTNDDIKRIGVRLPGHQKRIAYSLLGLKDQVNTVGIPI
Sequence of EpHA5 (P54756 25-1037): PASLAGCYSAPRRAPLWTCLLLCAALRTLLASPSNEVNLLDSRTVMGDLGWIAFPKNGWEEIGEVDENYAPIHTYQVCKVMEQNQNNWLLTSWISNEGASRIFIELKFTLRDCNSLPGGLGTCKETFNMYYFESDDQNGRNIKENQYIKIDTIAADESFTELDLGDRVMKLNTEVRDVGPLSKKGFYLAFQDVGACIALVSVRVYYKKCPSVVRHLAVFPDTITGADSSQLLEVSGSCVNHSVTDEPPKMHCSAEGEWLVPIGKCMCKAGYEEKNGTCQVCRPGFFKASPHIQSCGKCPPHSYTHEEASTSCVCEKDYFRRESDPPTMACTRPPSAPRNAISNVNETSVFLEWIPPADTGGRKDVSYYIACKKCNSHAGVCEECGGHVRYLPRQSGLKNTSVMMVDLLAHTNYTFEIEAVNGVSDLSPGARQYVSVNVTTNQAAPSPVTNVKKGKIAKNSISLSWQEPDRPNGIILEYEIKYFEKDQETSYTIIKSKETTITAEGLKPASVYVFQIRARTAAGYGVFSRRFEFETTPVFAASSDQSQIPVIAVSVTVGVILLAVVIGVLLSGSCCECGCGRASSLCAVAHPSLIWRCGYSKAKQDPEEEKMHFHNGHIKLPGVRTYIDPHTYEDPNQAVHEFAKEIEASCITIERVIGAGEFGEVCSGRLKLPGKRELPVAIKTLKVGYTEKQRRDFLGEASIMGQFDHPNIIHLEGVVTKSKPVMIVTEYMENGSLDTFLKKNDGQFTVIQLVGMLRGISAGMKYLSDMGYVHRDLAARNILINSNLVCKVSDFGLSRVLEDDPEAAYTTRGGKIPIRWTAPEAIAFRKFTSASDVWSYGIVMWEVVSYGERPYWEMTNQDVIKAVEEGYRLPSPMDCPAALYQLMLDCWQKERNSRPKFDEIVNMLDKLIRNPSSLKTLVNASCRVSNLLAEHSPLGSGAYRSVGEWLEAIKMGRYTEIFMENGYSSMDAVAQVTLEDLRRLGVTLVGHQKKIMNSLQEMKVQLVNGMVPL
Sequence of CK1e (P49674 whole entry): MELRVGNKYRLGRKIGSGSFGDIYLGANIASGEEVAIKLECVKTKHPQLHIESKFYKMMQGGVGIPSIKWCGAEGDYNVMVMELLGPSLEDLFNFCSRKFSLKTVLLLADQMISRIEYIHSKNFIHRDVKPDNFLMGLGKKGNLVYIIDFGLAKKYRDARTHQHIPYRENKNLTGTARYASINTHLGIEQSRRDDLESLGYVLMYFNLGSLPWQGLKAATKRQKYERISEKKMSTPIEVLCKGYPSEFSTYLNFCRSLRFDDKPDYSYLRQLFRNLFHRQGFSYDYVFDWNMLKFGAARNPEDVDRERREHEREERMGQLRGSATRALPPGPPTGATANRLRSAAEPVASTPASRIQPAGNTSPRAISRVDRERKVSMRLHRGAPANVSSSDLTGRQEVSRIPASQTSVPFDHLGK
Sequence of EpHA2 (kinase domain) (P29317 596-900): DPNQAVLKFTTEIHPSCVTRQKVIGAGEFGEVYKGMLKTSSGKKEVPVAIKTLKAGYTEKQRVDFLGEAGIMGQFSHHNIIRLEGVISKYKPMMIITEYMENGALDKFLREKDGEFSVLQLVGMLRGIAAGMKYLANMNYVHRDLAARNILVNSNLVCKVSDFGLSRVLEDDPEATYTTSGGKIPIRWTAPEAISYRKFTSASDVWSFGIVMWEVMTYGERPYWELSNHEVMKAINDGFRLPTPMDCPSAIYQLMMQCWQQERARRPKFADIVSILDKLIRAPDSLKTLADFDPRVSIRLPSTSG

For `CNc1ncc2cc(-c3ccc(-c4cccc(C)n4)cc3Cl)c(=O)n(CC3OCC(N)CO3)c2n1` (stereo not drawn) [compound 2, G-5555], the “dTm G-5555 (2)” value at Erk3 [1] (10 µM, binder) came out at 0.3 °C.
As usually defined, the IC50 is the midpoint of a concentration-inhibition curve. The low end stands for greater potency in that assay, the high end for weaker potency in that assay. With `CNc1ncc2cc(-c3ccccc3Cl)c(=O)n(CCCCN)c2n1` [compound 4, 8-(4-Aminobutyl)-6-(2-chlorophenyl)-2-(methylamino)pyrido[2,3-d]pyrimidin-7(8H)-one], the IC50 is 0.928 ± 0.006 µM against EpHA5; over 1 µM on GAK; over 1 µM against EpHB2; over 1 µM on ABL1; 0.21 ± 0.036 µM at EpHA2; 0.066 ± 0.038 µM on EpHA4. Moreover, the ΔTm at 10 µM on MSSK1 [2] (read-out: dTm MR21 (4)) was 0.2 °C.
Consider `CNc1ncc2cc(-c3cc(C(F)(F)F)ccc3Cl)c(=O)n(CCCCN)c2n1` [compound 9, 8-(4-Aminobutyl)-6-(2-chloro-5-(trifluoromethyl)phenyl)-2-(methylamino)pyrido[2,3-d]pyrimidin-7(8H)-one], for which the X-ray crystal structure at EpHA2 (kinase domain) is given as 8BIO (EpHA2-9 complex).
`CNc1ncc2cc(-c3cc(Cl)ccc3Cl)c(=O)n(CCCCN)c2n1` [compound 8, 8-(4-Aminobutyl)-6-(2,5-dichlorophenyl)-2-(methylamino)pyrido[2,3-d]pyrimidin-7(8H)-one]: the IC50 was over 1 µM against EpHA5; over 1 µM at BMX; over 1 µM against EpHB2; over 1 µM on ABL1; over 1 µM against EpHA2; 0.346 ± 0.001 µM at EpHA4.
On to `CNc1ncc2cc(-c3cc(F)c(-c4cccc(C)n4)cc3F)c(=O)n(CCCCN)c2n1` [compound 12, 8-(4-Aminobutyl)-6-(2,5-difluoro-4-(6-methylpyridin-2-yl)phenyl)-2-(methylamino)pyrido[2,3-d]pyrimidin-7(8H)-one], for which the ΔTm at 10 µM on SLK was 2.9 °C; at Erk3 [3], 0.7 °C; at CK1e, 3.1 °C; on MSSK1 [4], -0.2 °C.
Consider `CNc1ncc2cc(-c3cc(F)ccc3F)c(=O)n(CCCCN)c2n1` [compound 5, 8-(4-Aminobutyl)-6-(2,5-difluorophenyl)-2-(methylamino)pyrido[2,3-d]pyrimidin-7(8H)-one], for which the ΔTm at 10 µM on Erk3 [1] (read-out: dTm MR22 (5)) is 0.5 °C; at MSSK1 [2] (read-out: dTm MR22 (5)) it was -0.1 °C.

Values taken from article doi:10.1101/2023.03.24.534094v2 (biorxiv, 2023).
